In patent publication US8268848B2, “Cyclopropane compound” (Eisai R&D Management Co., Ltd., priority 2010, dated 2012):
Where two headings read alike, the source gives them in different places.

Columns and labels:
[1] = biological target: T1, OX1 (Homo sapiens, UniProt O43613); experiment: Measurement of orexin receptor-binding ability ([125I]-OX-A, cell membranes, OX1); design: expressed in transfected cells; host or cells: CHO cells (membrane preparation)
T1 sequence (O43613 1-425): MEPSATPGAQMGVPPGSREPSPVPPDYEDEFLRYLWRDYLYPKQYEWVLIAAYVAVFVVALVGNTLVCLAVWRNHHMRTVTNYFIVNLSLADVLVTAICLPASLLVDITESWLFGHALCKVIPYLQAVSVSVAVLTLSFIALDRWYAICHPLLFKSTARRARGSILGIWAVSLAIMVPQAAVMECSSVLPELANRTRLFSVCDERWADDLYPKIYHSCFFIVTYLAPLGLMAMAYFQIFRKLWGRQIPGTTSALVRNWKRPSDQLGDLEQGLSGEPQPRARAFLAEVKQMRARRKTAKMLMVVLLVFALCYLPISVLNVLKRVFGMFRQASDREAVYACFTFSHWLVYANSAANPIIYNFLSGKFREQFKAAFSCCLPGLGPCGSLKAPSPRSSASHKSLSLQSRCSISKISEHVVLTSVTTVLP
Description: 1. Measurement of Orexin Receptor-Binding Ability
The assay was carried out using a 96-well Wheat Germ Agglutinin Flash Plate (PerkinElmer). The volume in a single assay well was 100 ul, and the composition of the reaction solution was as follows:
25 mM HEPES (pH 7.5), 1 mM CaCl2, 4.5 mM MgCl2, 0.5% BSA (bovine serum albumin), 0.1% sodium azide, 0.05% Tween-20, and 0.2% DMSO.
Cell membranes were prepared from recombinant CHO cells that expressed OX2 or OX1. The cell membranes were used in an amount of 5 μg protein/assay. […] Finally, the radioactivity of each well was measured using a scintillation counter (TopCount, PerkinElmer).

[2] = biological target: T2, OX2 (Homo sapiens, UniProt O43614); experiment: Measurement of orexin receptor-binding ability ([125I]-OX-A, cell membranes, OX2); design: expressed in transfected cells; host or cells: CHO cells (membrane preparation); conditions: membranes of recombinant CHO cells expressing OX2, 0.2 nM [125I]-OX-A
T2 sequence (O43614 1-444): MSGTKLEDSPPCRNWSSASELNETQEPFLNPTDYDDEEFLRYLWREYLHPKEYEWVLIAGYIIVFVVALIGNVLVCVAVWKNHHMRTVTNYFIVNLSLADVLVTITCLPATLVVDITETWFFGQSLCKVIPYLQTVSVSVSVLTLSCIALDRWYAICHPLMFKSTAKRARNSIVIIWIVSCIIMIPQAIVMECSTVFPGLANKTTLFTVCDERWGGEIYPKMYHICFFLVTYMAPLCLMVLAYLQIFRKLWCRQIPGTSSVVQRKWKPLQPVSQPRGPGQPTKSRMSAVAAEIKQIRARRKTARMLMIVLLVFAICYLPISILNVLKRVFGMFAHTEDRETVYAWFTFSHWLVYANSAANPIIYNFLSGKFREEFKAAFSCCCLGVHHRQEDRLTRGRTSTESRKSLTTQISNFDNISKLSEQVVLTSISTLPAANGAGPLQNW

[3] = membranes of recombinant CHO cells expressing OX1, 0.2 nM [125I]-OX-A, read-out: OX1 (IC50)

SMILES	IC50 [1]	IC50 ([2]; OX2 (IC50) nM)	IC50 [1, 3]	IC50 ([2]; read-out: OX2 (IC50))
COCc1cc(NC(=O)[C@@H]2C[C@@]2(COc2cnc(C)nc2C)c2ccc(F)cc2)ncc1F [Example 109, (1R,2S)-2-{[(2,4-dimethylpyrimidin-5-yl)oxy]methyl}-N-(5-fluoro-4-methoxymethylpyridin-2-yl)-2-(4-fluorophenyl)cyclopropanecarboxamide]	0.012 µM	5.8 nM		
Cc1ncc(OC[C@@]2(c3ccc(F)cc3)C[C@H]2C(=O)Nc2ccccn2)c(C)n1 [Example 110]	0.34 µM	110 nM		
Cc1ncc(OC[C@@]2(c3ccc(F)cc3)C[C@H]2C(=O)Nc2cc(C)c(F)cn2)c(C)n1 [Example 111, (1R,2S)-2-{[(2,4-dimethylpyrimidin-5-yl)oxy]methyl}-N-(5-fluoro-4-methylpyridin-2-yl)-2-(4-fluorophenyl)cyclopropanecarboxamide]			0.034 µM	6 nM
COc1cncc(NC(=O)[C@@H]2C[C@@]2(COc2cnc(C)nc2C)c2ccc(F)cc2)c1 [Example 112]			1.02 µM	18 nM
Cc1ncc(OC[C@@]2(c3cccc(C#N)c3)C[C@H]2C(=O)Nc2cc(C)c(F)cn2)c(C)n1 [Example 117, (1R,2S)-2-(3-cyanophenyl)-2-{[(2,4-dimethylpyrimidin-5-yl)oxy]methyl}-N-(5-fluoro-4-methylpyridin-2-yl)cyclopropanecarboxamide]			0.019 µM	4 nM
CCc1nc(C)ncc1OC[C@@]1(c2ccccc2)C[C@H]1C(=O)Nc1ccccn1 [Example 118, (1R,2S)-2-{[(4-ethyl-2-methylpyrimidin-5-yl)oxy]methyl}-2-phenyl-N-(pyridin-2-yl)cyclopropanecarboxamide]			0.342 µM	24 nM
CCc1nc(C)ncc1OC[C@@]1(c2ccccc2)C[C@H]1C(=O)Nc1cc(C)c(F)cn1 [Example 122]			< 0.02 µM	7 nM
COc1ccccc1C1(COc2cnc(C)nc2C)CC1C(=O)Nc1ccc(F)cn1 (stereo not shown) [Example 125]	1.05 µM	84 nM		
COc1ccccc1C1(COc2cnc(C)nc2C)CC1C(=O)Nc1cccnc1 (stereo not shown) [Example 126]			0.1 µM	107 nM
COc1ncc(OC[C@@]2(c3ccccc3)C[C@H]2C(=O)Nc2ccc(C#N)cn2)c(C)n1 [Example 127, (1R,2S)-N-(5-cyanopyridin-2-yl)-2-{[(2-methoxy-4-methylpyrimidin-5-yl)oxy]methyl}-2-phenylcyclopropanecarboxamide]			1.1 µM	80 nM
CCc1ncc(OC[C@@]2(c3ccccc3)C[C@H]2C(=O)Nc2ccc(Cl)cn2)c(C)n1 [Example 128, (1R,2S)-N-(5-chloropyridin-2-yl)-2-{[(2-ethyl-4-methylpyrimidin-5-yl)oxy]methyl}-2-phenylcyclopropanecarboxamide]			0.231 µM	75 nM
Cc1ncc(OC[C@@]2(c3cc(F)cc(F)c3)C[C@H]2C(=O)Nc2ccccn2)c(C)n1 [Example 131, (1R,2S)-2-(3,5-difluorophenyl)-2-{[(2,4-dimethylpyrimidin-5-yl)oxy]methyl}-N-(pyridin-2-yl)cyclopropanecarboxamide]	0.089 µM	5 nM		
Cc1ncc(OC[C@@]2(c3cc(F)cc(F)c3)C[C@H]2C(=O)Nc2ccc(Cl)cn2)c(C)n1 [Example 132, (1R,2S)-N-(5-chloropyridin-2-yl)-2-(3,5-difluorophenyl)-2-{[(2,4-dimethylpyrimidin-5-yl)oxy]methyl}cyclopropanecarboxamide]	0.018 µM	4 nM		
Cc1ncc(OC[C@@]2(c3cc(F)cc(F)c3)C[C@H]2C(=O)Nc2ccc(F)cn2)c(C)n1 [Example 133, (1R,2S)-2-(3,5-difluorophenyl)-2-{[(2,4-dimethylpyrimidin-5-yl)oxy]methyl}-N-(5-fluoropyridin-2-yl)cyclopropanecarboxamide]	0.007 µM	3 nM		
Cc1ncc(OC[C@@]2(c3cc(F)cc(F)c3)C[C@H]2C(=O)Nc2ccc(F)c(F)c2)c(C)n1 [Example 134, (1R,2S)-N-(3,4-difluorophenyl)-2-(3,5-difluorophenyl)-2-{[(2,4-dimethylpyrimidin-5-yl)oxy]methyl}cyclopropanecarboxamide]			< 0.002 µM	4 nM
Cc1ncc(OC[C@@]2(c3cc(F)cc(F)c3)C[C@H]2C(=O)Nc2ccc(F)cc2F)c(C)n1 [Example 135, (1R,2S)-N-(2,4-difluorophenyl)-2-(3,5-difluorophenyl)-2-{[(2,4-dimethylpyrimidin-5-yl)oxy]methyl}cyclopropanecarboxamide]			0.014 µM	8 nM

SMILES	IC50 [1]	IC50 ([2]; OX2 (IC50) nM)	IC50 [1, 3]	IC50 ([2]; read-out: OX2 (IC50))
Cc1ncc(OC[C@@]2(c3cc(F)cc(F)c3)C[C@H]2C(=O)Nc2ccc(C#N)cn2)c(C)n1 [Example 137, (1R,2S)-N-(5-cyanopyridin-2-yl)-2-(3,5-difluorophenyl)-2-{[(2,4-dimethylpyrimidin-5-yl)oxy]methyl}cyclopropanecarboxamide]	0.097 µM	4 nM		
COc1cc(NC(=O)[C@@H]2C[C@@]2(COc2cnc(C)nc2C)c2cc(F)cc(F)c2)ncc1F [Example 138, (1R,2S)-2-(3,5-difluorophenyl)-2-{[(2,4-dimethylpyrimidin-5-yl)oxy]methyl}-N-(5-fluoro-4-methoxypyridin-2-yl)cyclopropanecarboxamide]			0.0026 µM	2.4 nM
COCc1nc(C)ncc1OC[C@@]1(c2ccccc2)C[C@H]1C(=O)Nc1ccc(C#N)cn1 [Example 140, (1R,2S)-N-(5-cyanopyridin-2-yl)-2-{[(4-(methoxymethyl)-2-methylpyrimidin-5-yl)oxy]methyl}-2-phenylcyclopropanecarboxamide]			0.044 µM	8.9 nM
COCc1nc(C)ncc1OC[C@@]1(c2ccccc2)C[C@H]1C(=O)Nc1nc(C)cs1 [Example 142]			0.331 µM	36 nM
Cc1ncc(OCC2(c3ccccc3Cl)CC2C(=O)Nc2ccc(F)cn2)c(C)n1 (stereo not shown) [Example 151]	0.102 µM	25 nM		
Cc1ncc(OCC2(c3ccccc3Cl)CC2C(=O)Nc2ccc(Cl)cn2)c(C)n1 (stereo not shown) [Example 152]	0.058 µM	36 nM		
Cc1ncc(OCC2(c3ccccc3Cl)CC2C(=O)Nc2ccc(C#N)cn2)c(C)n1 (stereo not shown) [Example 153]	0.447 µM	32 nM		
Cc1ncc(OCC2(c3cccc(Cl)c3)CC2C(=O)Nc2ccc(F)cn2)c(C)n1 (stereo not shown) [Example 154]	0.006 µM	7 nM		
Cc1ncc(OCC2(c3cccc(Cl)c3)CC2C(=O)Nc2ccc(Cl)cn2)c(C)n1 (stereo not shown) [Example 155]	0.01 µM	6 nM		
Cc1ncc(OCC2(c3cccc(Cl)c3)CC2C(=O)Nc2ccc(C#N)cn2)c(C)n1 (stereo not shown) [Example 156]	0.042 µM	13 nM		
Cc1ncc(OCC2(c3cccc(Cl)c3)CC2C(=O)Nc2cccnc2)c(C)n1 (stereo not shown) [Example 157]	0.397 µM	69 nM		
Cc1ncc(OCC2(c3ccc(Cl)cc3)CC2C(=O)Nc2ccc(Cl)cn2)c(C)n1 (stereo not shown) [Example 158]			0.18 µM	27 nM
Cc1ncc(OCC2(c3ccc(Cl)cc3)CC2C(=O)Nc2ccc(C#N)cn2)c(C)n1 (stereo not shown) [Example 159]			0.624 µM	62 nM
Cc1ncc(OCC2(c3ccc(Cl)cc3)CC2C(=O)Nc2cccnc2)c(C)n1 (stereo not shown) [Example 160]			0.389 µM	28 nM
Cc1ncc(OCC2(c3cccc(F)c3F)CC2C(=O)Nc2ccc(F)cn2)c(C)n1 (stereo not shown) [Example 162, 2-(2,3-difluorophenyl)-2-{[(2,4-dimethylpyrimidin-5-yl)oxy]methyl}-N-(5-fluoropyridin-2-yl)cyclopropanecarboxamide]	0.065 µM	13 nM		
Cc1ncc(OCC2(c3cc(F)ccc3F)CC2C(=O)Nc2ccc(F)cn2)c(C)n1 (stereo not shown) [Example 163, 2-(2,5-difluorophenyl)-2-{[(2,4-dimethylpyrimidin-5-yl)oxy]methyl}-N-(5-fluoropyridin-2-yl)cyclopropanecarboxamide]	< 0.02 µM	10 nM		
